Test results taken from US20260240851A1, “Treatment of Parkinson's Disease in a Patient Using a Glucocerebrosidase Activator” (BIAL - R&D Investments, S.A., priority 2023, published 2026).
Read-outs that look alike come from different tables or passages of the source.

Key:
[1] = LTI-291-001 single ascending dose study: plasma pharmacokinetics and food effect; format: in vivo, human; conditions: for Vd/F: read-out: Vz/F
Procedure: This study was a first-in-human Phase 1, randomized, double-blind, placebo-controlled, single-ascending dose study to evaluate the safety and tolerability, PK, and PD of escalating single oral doses of Compound A (3, 10, 30, and 90 mg) in 4 cohorts of healthy subjects. A total of 32 subjects received a single oral dose of Compound A (8 per dose group) and 8 subjects received placebo. The effect of food on the PK of Compound A was evaluated by administering a second single oral dose of 10 mg Compound A to the subjects in Cohort 2 on a separate occasion, after subjects had completed a high-fat breakfast. Blood samples for Compound A PK were collected up to 48 hours after each dose.

[2] = tested on: GluCer in plasma and PBMCs; experiment: LTI-291-001: GluCer biomarker; format: in vivo, human; conditions: single doses, vs placebo
Procedure: The pharmacodynamic evaluations consisted of a battery of CNS (NeuroCart®) assessments, including Saccadic Eye Movements, Smooth Pursuit Eye Movements, Adaptive Tracking, Body Sway, Visual Verbal Learning Test, and EEG. GluCer was measured in plasma and PBMCs as a biomarker of pharmacological effect.

[3] = 3 mg fasted, single oral dose, geometric mean
[4] = 10 mg fasted, single oral dose, geometric mean
[5] = 10 mg fed, single oral dose, geometric mean
[6] = 10 mg, high-fat breakfast vs fasted
[7] = 30 mg fasted, single oral dose, geometric mean
[8] = 90 mg fasted, single oral dose, geometric mean
[9] = human, plasma, po, 3 mg, 3 mg fasted, single oral dose, geometric mean
[10] = human, plasma, po, 10 mg, 10 mg fasted, single oral dose, geometric mean
[11] = human, plasma, po, 10 mg, 10 mg fed, single oral dose, geometric mean
[12] = human, plasma, po, 30 mg, 30 mg fasted, single oral dose, geometric mean
[13] = human, plasma, po, 90 mg, 90 mg fasted, single oral dose, geometric mean

SMILES: CCCCCO[C@H]1CC[C@H](NC(=O)c2cnn3c(C)cc(C)nc23)CC1 [Compound A, 5,7-dimethyl-N-((1S*,4S)-4-(pentyloxy)cyclohexyl)pyrazolo[1,5-a]pyrimidine-3-carboxamide]
- AUC0-inf/dose [1, 3]: 754 ng·h/mL/mg
- Cmax/dose [1, 3]: 36.4 ng/mL/mg
- AUC0-inf/dose [1, 4]: 756 ng·h/mL/mg
- Cmax/dose [1, 4]: 32.8 ng/mL/mg
- Tmax ([1]; 10 mg fasted, single oral dose, median): 1.01 h
- AUC0-inf/dose [1, 5]: 853 ng·h/mL/mg
- Cmax/dose [1, 5]: 23.4 ng/mL/mg
- ratio of geometric means fed to fasting, AUC0-inf [1, 6]: 111%
- ratio of geometric means fed to fasting, AUC0-last [1, 6]: 103%
- ratio of geometric means fed to fasting, Cmax [1, 6]: 71.3%
- AUC0-inf/dose [1, 7]: 821 ng·h/mL/mg
- Cmax/dose [1, 7]: 32.0 ng/mL/mg
- AUC0-inf/dose [1, 8]: 704 ng·h/mL/mg
- Cmax/dose [1, 8]: 29.4 ng/mL/mg
- total exposure (Cmax and AUC0-inf) versus dose ([1]; entire dose range 3-90 mg): increase in a dose proportional manner
- half-life ([1]; human, plasma, oral, across fasted and fed groups, read-out: Geometric mean t1/2): 21.2 to 23.4 h
- Tmax ([1]; human, plasma, oral, single dose 3-90 mg, fasted, medians across dose groups, read-out: median Tmax): 1 to 3 h
- Tmax ([1]; human, plasma, oral, single dose 3-90 mg, fasted, minimum to maximum, read-out: Tmax, range): 1 to 8.2 h
- AUC(0-inf) [1, 9]: 2260 ng·h/mL
- AUC(0-t) [1, 9]: 1560 ng·h/mL
- Cmax [1, 9]: 109 ng/mL
- Vd/F [1, 9]: 40.5 L
- half-life ([1]; human, plasma, po, 3 mg, 3 mg fasted, single oral dose, geometric mean, read-out: t1/2 (converted)): 21.2 h
- Tmax ([1]; human, plasma, po, 3 mg, 3 mg fasted, single oral dose, median, read-out: Tmax): 1.48 h
- AUC(0-inf) [1, 10]: 7560 ng·h/mL
- AUC(0-t) [1, 10]: 5690 ng·h/mL
- Cmax [1, 10]: 328 ng/mL
- Vd/F [1, 10]: 42.4 L
- half-life ([1]; human, plasma, po, 10 mg, 10 mg fasted, single oral dose, geometric mean, read-out: t1/2 (converted)): 22.2 h
- Tmax ([1]; human, plasma, po, 10 mg, 10 mg fasted, single oral dose, median, read-out: Tmax): 1 h
- AUC(0-inf) [1, 11]: 8530 ng·h/mL
- AUC(0-t) [1, 11]: 5860 ng·h/mL
- Cmax [1, 11]: 234 ng/mL
- Vd/F [1, 11]: 39.6 L
- half-life ([1]; human, plasma, po, 10 mg, 10 mg fed, single oral dose, geometric mean, read-out: t1/2 (converted)): 23.4 h
- Tmax ([1]; human, plasma, po, 10 mg, 10 mg fed, single oral dose, median, read-out: Tmax): 8 h
- AUC(0-inf) [1, 12]: 24600 ng·h/mL
- AUC(0-t) [1, 12]: 18400 ng·h/mL
- Cmax [1, 12]: 961 ng/mL
- Vd/F [1, 12]: 40.8 L
- half-life ([1]; human, plasma, po, 30 mg, 30 mg fasted, single oral dose, geometric mean, read-out: t1/2 (converted)): 23.2 h
- Tmax ([1]; human, plasma, po, 30 mg, 30 mg fasted, single oral dose, median, read-out: Tmax): 3.02 h
- AUC(0-inf) [1, 13]: 63400 ng·h/mL
- AUC(0-t) [1, 13]: 47800 ng·h/mL
- Cmax [1, 13]: 2640 ng/mL
- Vd/F [1, 13]: 47.7 L
- half-life ([1]; human, plasma, po, 90 mg, 90 mg fasted, single oral dose, geometric mean, read-out: t1/2 (converted)): 23.3 h
- Tmax ([1]; human, plasma, po, 90 mg, 90 mg fasted, single oral dose, median, read-out: Tmax): 2 h
- GluCer variables in PBMCs [2]: Differences between treatment with Compound A and placebo were observed
- GluCer variables in plasma [2]: No significant overall treatment effects
